Among the test systems are Escherichia coli K-12; Bacillus subtilis 168; Bacillus cereus; Escherichia coli; Leuconostoc lactis; Listeria innocua; Micrococcus luteus; Pasteurella multocida; Staphylococcus aureus; Streptococcus uberis.
What all share (experiment): ≥ marks a high value that may be exact or a test limit, other limits are often not marked, values filed in µg/mL are converted to µM
In experiment [1] the test system is Bacillus subtilis ATCC 6633.
Experiment [2] deals with Escherichia coli ATCC 25922.
The test system of experiment [3] is Klebsiella pneumoniae ATCC 10031.
Experiment [4] deals with Micrococcus luteus ATCC 10240.
In experiment [5] the test system is Pseudomonas aeruginosa ATCC 27853.
Experiment [6] concerns Salmonella enterica subsp. enterica serovar Typhimurium ATCC 14028.
The test system of experiment [7] is Shigella dysenteriae ATCC 9752.
The subject of experiment [8] is Staphylococcus aureus ATCC 6538P.
Experiment [9] concerns Staphylococcus epidermidis ATCC 12228.
Experiment [10] has as its system Pseudomonas aeruginosa Ps4.
Experiment [11] deals with Pseudomonas aeruginosa PAO1.
Experiment [12] concerns Staphylococcus aureus USA 300.
Experiment [13] deals with Staphylococcus epidermidis.

In brackets after ≈: the same amount, converted by molar mass.

In DBAASP one finds MIC data, which are given here for eleven compounds.

The term MIC denotes the smallest concentration in the dilution series that meets the test's criterion for growth inhibition. Lower therefore signals inhibition by little substance.

For `CC(C)C[C@H](NC(=O)[C@H](Cc1c[nH]c2ccccc12)NC(=O)[C@H](CCCCN)NC(=O)[C@H](Cc1ccccc1)NC(=O)[C@H](CC(C)C)NC(=O)[C@H](Cc1c[nH]c2ccccc12)NC(=O)[C@H](CCCCN)NC(=O)[C@H](CC(C)C)NC(=O)[C@@H](N)Cc1ccccc1)C(=O)N[C@@H](CCCCN)C(=O)N[C@@H](CCCCN)C(N)=O` [FLKWLFKWLKK], the MIC in experiment [1] was 4.1 µM (≈ 6.3 µg/mL); in [2], 32.5 µM (≈ 50 µg/mL); in [3], ≥ 32.5 µM; in experiment [4] it was 2.02 µM (≈ 3.1 µg/mL); in experiment [5], 16.3 µM (≈ 25 µg/mL); in experiment [6], 130 µM (≈ 200 µg/mL). In addition, the figures for the MIC in experiment [7], in experiment [8] and in experiment [9] were 16.3 µM (≈ 25 µg/mL), 8.13 µM (≈ 12.5 µg/mL) and 8.13 µM (≈ 12.5 µg/mL), respectively.
Regarding `CC(C)C[C@H](NC(=O)[C@H](Cc1c[nH]c2ccccc12)NC(=O)[C@H](Cc1c[nH]c2ccccc12)NC(=O)[C@H](CC(C)C)NC(=O)[C@@H](N)Cc1ccccc1)C(=O)N[C@@H](Cc1ccccc1)C(=O)N[C@@H](CCCCN)C(=O)N[C@@H](Cc1c[nH]c2ccccc12)C(=O)N[C@@H](C)C(=O)N[C@@H](Cc1c[nH]c2ccccc12)C(=O)N[C@@H](CCCCN)C(N)=O` [FLWWLFKWAWK], the MIC in experiment [1] is 1.92 µM (≈ 3.1 µg/mL); in experiment [2], > 124 µM; in experiment [3], ≥ 124 µM; in experiment [4] it was 1.92 µM (≈ 3.1 µg/mL); in experiment [5], > 124 µM; in experiment [6] it was > 124 µM. For the same compound, the figures for the MIC in [7], in experiment [8] and in experiment [9] were ≥ 124 µM, 3.91 µM (≈ 6.3 µg/mL) and 1.92 µM (≈ 3.1 µg/mL), respectively.
Regarding `CC(C)[C@H](NC(=O)[C@H](CCCCN)NC(=O)[C@H](CCCN=C(N)N)NC(=O)[C@H](Cc1c[nH]c2ccccc12)NC(=O)[C@H](CC(N)=O)NC(=O)[C@H](CCCN=C(N)N)NC(=O)[C@H](CCC(N)=O)NC(=O)[C@H](Cc1c[nH]c2ccccc12)NC(=O)[C@@H](N)Cc1ccccc1)C(=O)N[C@@H](CCCN=C(N)N)C(N)=O` [FWQRNWRKVR], the MIC in experiment [10] is ≥ 169 µM.
As for `CC[C@H](C)[C@H](NC(=O)[C@H](C)NC(=O)[C@H](CCC(N)=O)NC(=O)[C@@H](NC(=O)[C@@H](NC(=O)[C@H](CCCN=C(N)N)NC(=O)[C@H](CCCCN)NC(=O)[C@H](Cc1ccccc1)NC(=O)CN)[C@@H](C)CC)C(C)C)C(=O)N[C@@H](CCCCN)C(=O)N[C@@H](CC(=O)O)C(=O)N[C@@H](Cc1ccccc1)C(=O)N[C@@H](CC(C)C)C(=O)N[C@@H](CCCN=C(N)N)C(=O)N[C@@H](CC(N)=O)C(=O)N[C@@H](CC(C)C)C(=O)N[C@H](C(N)=O)C(C)C` [GFKRIVQAIKDFLRNLV], in the experiment with Escherichia coli K-12, the MIC is ≥ 60 µM.
For the compound `CC[C@H](C)[C@H](NC(=O)[C@@H](NC(=O)[C@H](CCCCN)NC(=O)CNC(=O)[C@@H](NC(=O)[C@@H](NC(=O)[C@H](CO)NC(=O)[C@@H](NC(=O)[C@@H](NC(=O)[C@@H]1CCCN1C(=O)[C@@H](NC(=O)[C@@H](NC(=O)CN)[C@@H](C)CC)[C@@H](C)CC)[C@@H](C)CC)[C@@H](C)CC)[C@@H](C)CC)[C@@H](C)CC)[C@@H](C)CC)C(N)=O` [GIIPIISIIGKII], the MIC in the experiment on Bacillus subtilis 168 is 30 µM (≈ 40.5 µg/mL); against Escherichia coli K-12 it was ≥ 34 µM; in experiment [11], > 30 µM; in experiment [12], ≥ 34 µM.
For `CC[C@H](C)[C@H](NC(=O)[C@@H](NC(=O)[C@H](CO)NC(=O)[C@H](C)NC(=O)[C@@H](NC(=O)[C@H](CCCCN)NC(=O)[C@H](CCCCN)NC(=O)[C@@H](NC(=O)[C@@H](NC(=O)[C@H](CC(=O)O)NC(=O)[C@H](C)NC(=O)[C@H](CC(C)C)NC(=O)CN)C(C)C)[C@@H](C)CC)C(C)C)C(C)C)C(=O)NCC(=O)NCC(=O)N[C@@H](CC(C)C)C(N)=O` [GLADVIKKVASVIGGL], the MIC in the experiment on Bacillus cereus was ≥ 32.5 µM; with Escherichia coli, > 64.9 µM; in the experiment on Leuconostoc lactis, ≥ 64.9 µM; with Listeria innocua, ≥ 64.9 µM; in the experiment with Micrococcus luteus, ≥ 32.5 µM; against Pasteurella multocida, ≥ 64.9 µM. Further, the minimal inhibitory concentration (MIC) against Staphylococcus aureus is 64.9 µM (≈ 99.9 µg/mL); in experiment [13], ≥ 64.9 µM; against Streptococcus uberis, ≥ 64.9 µM.
On to `CC[C@H](C)[C@H](NC(=O)[C@@H](NC(=O)[C@H](C)NC(=O)[C@H](Cc1ccccc1)NC(=O)[C@H](CC(C)C)NC(=O)CN)C(C)C)C(=O)N[C@@H](CCCCN)C(=O)N[C@@H](CCCCN)C(=O)N[C@H](C(=O)N[C@@H](C)C(=O)N[C@@H](CCCCN)C(=O)N[C@H](C(=O)N[C@H](C(=O)N[C@@H](CCCCN)C(=O)N[C@@H](CCCCN)C(=O)N[C@@H](CC(C)C)C(N)=O)[C@@H](C)CC)C(C)C)C(C)C` [GLFAVIKKVAKVIKKL], for which the MIC with Bacillus cereus was 14.2 µM (≈ 25 µg/mL); in the experiment on Escherichia coli it was > 57 µM; in the experiment on Leuconostoc lactis, 1.71 µM (≈ 3 µg/mL); against Listeria innocua it was ≥ 57 µM; with Micrococcus luteus it was 14.2 µM (≈ 25 µg/mL); against Pasteurella multocida, ≥ 57 µM. The MIC against Staphylococcus aureus was 14.2 µM (≈ 25 µg/mL); in [13] it was 6.84 µM (≈ 12 µg/mL); with Streptococcus uberis, 28.5 µM (≈ 50 µg/mL).
As for `CC[C@H](C)[C@H](NC(=O)[C@@H](NC(=O)[C@H](CO)NC(=O)[C@H](C)NC(=O)[C@@H](NC(=O)[C@H](CCCCN)NC(=O)[C@H](C)NC(=O)[C@@H](NC(=O)[C@@H](NC(=O)[C@H](CC(=O)O)NC(=O)[C@H](Cc1ccccc1)NC(=O)[C@H](CC(C)C)NC(=O)CN)C(C)C)[C@@H](C)CC)C(C)C)C(C)C)C(=O)NCC(=O)NCC(=O)N[C@@H](CC(C)C)C(N)=O` [GLFDVIAKVASVIGGL], the MIC is ≥ 64.1 µM in the experiment with Bacillus cereus; > 64.1 µM in the experiment on Escherichia coli; 16 µM (≈ 25 µg/mL) in the experiment on Leuconostoc lactis; ≥ 64.1 µM with Listeria innocua; ≥ 64.1 µM with Micrococcus luteus; ≥ 64.1 µM in the experiment on Pasteurella multocida. Also, the MIC against Staphylococcus aureus was 64.1 µM (≈ 99.9 µg/mL); in experiment [13], ≥ 64.1 µM; in the experiment with Streptococcus uberis, ≥ 64.1 µM.
Take `CC[C@H](C)[C@H](NC(=O)[C@H](CCCCN)NC(=O)[C@H](CO)NC(=O)[C@H](C)NC(=O)[C@@H](NC(=O)[C@H](CCCCN)NC(=O)[C@H](CCCCN)NC(=O)[C@@H](NC(=O)[C@@H](NC(=O)[C@H](CC(=O)O)NC(=O)[C@H](Cc1ccccc1)NC(=O)[C@H](CC(C)C)NC(=O)CN)C(C)C)[C@@H](C)CC)C(C)C)C(=O)N[C@@H](CCCCN)C(=O)NCC(=O)N[C@@H](CC(C)C)C(N)=O` [GLFDVIKKVASKIKGL]: the MIC in the experiment on Bacillus cereus is ≥ 58.3 µM; with Escherichia coli, > 58.3 µM; in the experiment with Leuconostoc lactis it was 3.5 µM (≈ 6 µg/mL); against Listeria innocua, ≥ 58.3 µM; with Micrococcus luteus, ≥ 58.3 µM; against Pasteurella multocida, ≥ 58.3 µM. Moreover, the MIC was > 58.3 µM against Staphylococcus aureus, ≥ 58.3 µM in experiment [13] and ≥ 58.3 µM in the experiment on Streptococcus uberis.
In the case of `CC(C)C[C@H](NC(=O)[C@H](CC(C)C)NC(=O)[C@H](CCCCN)NC(=O)[C@H](CC(C)C)NC(=O)[C@H](CC(C)C)NC(=O)[C@H](Cc1c[nH]c2ccccc12)NC(=O)[C@H](CCCCN)NC(=O)[C@H](CC(C)C)NC(=O)[C@H](CC(C)C)NC(=O)[C@H](CCCCN)NC(=O)[C@H](CCCCN)NC(=O)[C@@H](N)CC(C)C)C(=O)N[C@@H](CCCCN)C(N)=O` [LKKLLKWLLKLLK], the MIC in [1] was 1.89 µM (≈ 3.1 µg/mL); in experiment [2], > 122 µM; in [3], ≥ 122 µM; in experiment [4] it was 1.89 µM (≈ 3.1 µg/mL); in experiment [5] it was > 122 µM; in experiment [6] it was > 122 µM. Besides, the MIC in experiment [7] was ≥ 122 µM; in experiment [8], 7.63 µM (≈ 12.5 µg/mL); in experiment [9], 7.63 µM (≈ 12.5 µg/mL).
Turning to `CC(C)C[C@H](NC(=O)[C@H](CC(C)C)NC(=O)[C@H](CCCCN)NC(=O)[C@H](CC(C)C)NC(=O)[C@H](CC(C)C)NC(=O)[C@H](Cc1c[nH]c2ccccc12)NC(=O)[C@H](CCCCN)NC(=O)[C@H](CC(C)C)NC(=O)[C@H](CC(C)C)NC(=O)[C@H](CCCCN)NC(=O)[C@H](CC(C)C)NC(=O)[C@@H](N)CC(C)C)C(=O)N[C@@H](CCCCN)C(N)=O` [LLKLLKWLLKLLK], the minimal inhibitory concentration (MIC) was 3.88 µM (≈ 6.3 µg/mL) in [1]; > 123 µM in experiment [2]; ≥ 123 µM in experiment [3]; 3.88 µM (≈ 6.3 µg/mL) in experiment [4]; > 123 µM in experiment [5]; > 123 µM in [6]. Also, the figures for the MIC in experiment [7], in experiment [8] and in [9] were ≥ 123 µM, 15.4 µM (≈ 25 µg/mL) and 30.8 µM (≈ 50 µg/mL), respectively.
